Like-named read-outs stand apart in the source and are kept apart here.
Experiments:
LDL [1] = conditions: cited from earlier work
LDL [2] = conditions: second study named in the background; any dose adjustment or change; cited from earlier work
LDL [3] = experiment: Proportion of CAD patients attaining LDL goal (<100 mg/dl) on a statin dose; validation sets stratified by predicted probability; conditions: for Proportion of patients achieving goal: validation set
LDL [4] = experiment: Logistic regression models of attaining LDL goal: odds ratios for concurrent or prior drug doses; format: in vivo, patients
Protocol: G. Covariates for the multivariate model—The following list includes the predictors one or more of which may be tested in the multivariate models. • 1. AGE: (expressed in units of 10 years) at time that the new statin prescription was released • 2. GENDER, E. G., MALE: 1=yes, 0=no • 3. BMI (kg/M^2): last value before release date • 4. HBA1C (hemoglobin Alc): last value before release date • 5. PLDL: preceding LDL level expressed in e.g. 10 mg/dl units • 6. Statins • a. PLOVA: prior daily dose of lovastatin expressed in e.g. 10 mg units • b. […] For additional drugs: • a. AMIODOSE: amiodarone dose in mg/day • b. CARBDOSE: carbemazepine dose in mg/day • c. PIOGDOSE: pioglitazone dose expressed as number of 15 mg doses per day • d. […] METFDOSE: metformin dose expressed as number of 1000 mg doses per day • f. PHENDOSE: phenyloin dose in mg/day • g. RISPDOSE: risperidone dose in mg/day • h. ROSIDOSE: rosiglitazone dose in mg/day • i.
Body mass index (BMI) was chosen as a covariate of statin response because obese patients tend to consume a diet high in cholesterol. It was hypothesized that they would respond less well to statins because their hypercholesterolemia was more likely to be mediated by dietary indiscretion than excessive LDL synthesis. […] Metformin and the thiazolidinediones were chosen because they reduce LDL levels in diabetic patients through mechanisms that may or may not be affected by concurrent statin treatment. The remaining non-statin drugs were chosen because they are commonly used drugs that potentiate the effect of statins. They were selected by reviewing the official on-line VA pharmaceutical reference (Micromedex®) for major interactions mediated by impaired statin metabolism. […] The daily dose of the non-statin drug was calculated by the method described in Section B.
H. Assembling the predictor file—The patient identifier was used to link the new statin prescription type and dose, the preceding LDL above goal, and the type and dose of the previous statin (if any) with the patient's most recent HbA1c, most recent BMI, and the daily doses of 9 drugs with major statin interactions that were active at the time the new prescription was released.
The dependent variable was attainment of goal (LDL <100 mg/dl). […] Step selections were based upon the maximal likelihood method with α<0.15 to enter and ≧0.15 to remove.

Compound: CC[C@H](C)C(=O)O[C@H]1C[C@@H](C)C=C2C=C[C@H](C)[C@H](CC[C@@H]3C[C@@H](O)CC(=O)O3)[C@H]21 [Lovastatin, lovastatin]
- Average LDL reduction (LDL [1]; Dose 20 mg): 29%
- Average LDL reduction (LDL [1]; Dose 40 mg): 31%
- Average LDL reduction (LDL [1]; Dose 80 mg): 40-48%
- Success of dose adjustment (reaching LDL goal) (LDL [2]): ≤ 50%
- Proportion of patients achieving goal (LDL [3]; Lovastatin 10 mg model, Overall): 36.8%
- Proportion of patients achieving goal (LDL [3]; Lovastatin 10 mg model, predicted probability 0-19%): 10.9%
- Proportion of patients achieving goal (LDL [3]; Lovastatin 10 mg model, predicted probability 20-39%): 31.3%
- Proportion of patients achieving goal (LDL [3]; Lovastatin 10 mg model, predicted probability 40-59%): 46.8%
- Proportion of patients achieving goal (LDL [3]; Lovastatin 10 mg model, predicted probability 60-79%): 73.3%
- Proportion of patients achieving goal (LDL [3]; Lovastatin 20 mg [A] model, Overall): 49.2%
- Proportion of patients achieving goal (LDL [3]; Lovastatin 20 mg [A] model, predicted probability 0-19%): 15.0%
- Proportion of patients achieving goal (LDL [3]; Lovastatin 20 mg [A] model, predicted probability 20-39%): 25.8%
- Proportion of patients achieving goal (LDL [3]; Lovastatin 20 mg [A] model, predicted probability 40-59%): 55.1%
- Proportion of patients achieving goal (LDL [3]; Lovastatin 20 mg [A] model, predicted probability 60-79%): 73.0%
- Proportion of patients achieving goal (LDL [3]; Lovastatin 20 mg [A] model, predicted probability 80-100%): 71.4%
- Proportion of patients achieving goal (LDL [3]; Lovastatin 20 mg [B] model, Overall): 49.3%
- Proportion of patients achieving goal (LDL [3]; Lovastatin 20 mg [B] model, predicted probability 0-19%): 12.7%
- Proportion of patients achieving goal (LDL [3]; Lovastatin 20 mg [B] model, predicted probability 20-39%): 33.0%
- Proportion of patients achieving goal (LDL [3]; Lovastatin 20 mg [B] model, predicted probability 40-59%): 53.6%
- Proportion of patients achieving goal (LDL [3]; Lovastatin 20 mg [B] model, predicted probability 60-79%): 75.0%
- Proportion of patients achieving goal (LDL [3]; Lovastatin 20 mg [B] model, predicted probability 80-100%): 64.7%
- Proportion of patients achieving goal (LDL [3]; Lovastatin 40 mg model, Overall): 49.3%
- Proportion of patients achieving goal (LDL [3]; Lovastatin 40 mg model, predicted probability 0-19%): 11.1%
- Proportion of patients achieving goal (LDL [3]; Lovastatin 40 mg model, predicted probability 20-39%): 31.2%
- Proportion of patients achieving goal (LDL [3]; Lovastatin 40 mg model, predicted probability 40-59%): 50.7%
- Proportion of patients achieving goal (LDL [3]; Lovastatin 40 mg model, predicted probability 60-79%): 70.7%
- Proportion of patients achieving goal (LDL [3]; Lovastatin 40 mg model, predicted probability 80-100%): 100%
- Proportion of patients achieving goal (LDL [3]; Model 1, lovastatin 10 mg, Overall): 36.8%
- Proportion of patients achieving goal (LDL [3]; Model 1, lovastatin 10 mg, predicted probability 0-19%): 10.9%
- Proportion of patients achieving goal (LDL [3]; Model 1, lovastatin 10 mg, predicted probability 20-39%): 31.3%
- Proportion of patients achieving goal (LDL [3]; Model 1, lovastatin 10 mg, predicted probability 40-59%): 46.8%
- Proportion of patients achieving goal (LDL [3]; Model 1, lovastatin 10 mg, predicted probability 60-79%): 73.3%
- Proportion of patients achieving goal (LDL [3]; Model 1, lovastatin 20 mg, Overall): 47.4%
- Proportion of patients achieving goal (LDL [3]; Model 1, lovastatin 20 mg, predicted probability 0-19%): 8.5%
- Proportion of patients achieving goal (LDL [3]; Model 1, lovastatin 20 mg, predicted probability 20-39%): 29.0%
- Proportion of patients achieving goal (LDL [3]; Model 1, lovastatin 20 mg, predicted probability 40-59%): 54.4%
- Proportion of patients achieving goal (LDL [3]; Model 1, lovastatin 20 mg, predicted probability 60-79%): 74.6%
- Proportion of patients achieving goal (LDL [3]; Model 1, lovastatin 40 mg, Overall): 49.3%
- Proportion of patients achieving goal (LDL [3]; Model 1, lovastatin 40 mg, predicted probability 0-19%): 11.1%
- Proportion of patients achieving goal (LDL [3]; Model 1, lovastatin 40 mg, predicted probability 20-39%): 33.3%
- Proportion of patients achieving goal (LDL [3]; Model 1, lovastatin 40 mg, predicted probability 40-59%): 49.1%
- Proportion of patients achieving goal (LDL [3]; Model 1, lovastatin 40 mg, predicted probability 60-79%): 73.2%
- Chance of success (reaching goal) of any dose choice (LDL [3]; this study, all doses): ≤ 50%
- OR (LDL [4]; odds of goal LDL <100 mg/dl, Lovastatin 20 mg [A] model (includes HbA1c; n = 595), per dose increment): 0.768
- OR (LDL [4]; odds of goal, Lovastatin 20 mg [B] model (excludes HbA1c; n = 733), per dose increment): 0.542
- OR (LDL [4]; odds of goal, Lovastatin 40 mg model (n = 764), per dose increment): 0.768
- OR (LDL [4]; odds of goal, Lovastatin 80 model (n = 309), per dose increment): 0.868
- OR (LDL [4]; odds of goal, Model 1, Lovastatin 20 mg, per 10 mg/day): 0.593
- OR (LDL [4]; odds of goal, Model 1, Lovastatin 40 mg, per 10 mg/day): 0.770
- OR (LDL [4]; odds of goal, Model 1, Lovastatin 80 mg, per 10 mg/day): 0.868
- OR (LDL [4]; odds of goal, Model 1, Simvastatin 10 mg, per 10 mg/day): 0.434
- OR (LDL [4]; odds of goal, Model 1, Simvastatin 20 mg, per 10 mg/day): 0.615
- OR (LDL [4]; odds of goal, Model 1, Simvastatin 40 mg, per 10 mg/day): 0.928
- OR (LDL [4]; odds of goal, Model 1, Simvastatin 80 mg, per 10 mg/day): 1.04
- OR (LDL [4]; odds of goal, Simvastatin 10 mg [B] model (includes BMI; n = 136), per dose increment): 0.341
- OR (LDL [4]; odds of goal, Simvastatin 10 mg [C] model (excludes BMI; n = 219), per dose increment): 0.382
- OR (LDL [4]; odds of goal, Simvastatin 20 mg model (n = 374), per dose increment): 0.617
- OR (LDL [4]; odds of goal, Simvastatin 40 mg model (n = 698), per dose increment): 0.921
